Where two headings read alike, the source gives them in different places.
What was measured:
Assay type in all cases: cell-based
[1] = Cytotoxicity experiment (MTT method) on C8166 cells; details: human
Protocol: (§1) C8166 cells infected with HIV-1 were used for determining the anti-HIV biological activity at the cellular level. The specific method was described below.
(§2) Cytotoxicity experiment: The toxicity of the compounds on C8166 cells was determined by MTT method. In 96-well cell culture plates, the compounds were subjected to 5-fold serial dilution and 100 μL of C8166 cell suspension (4×10^5/mL) was added into each well. Triplicate wells were set for each concentration. […] The cells were incubated at 37° C. in a 5% CO2 incubator for three days, followed by the addition of MTT solution into each well, and then the cells were incubated at 37° C. for 4 hours. 10% SDS-50% DMF was added into each well and the cells were incubated at 37° C. in a 5% CO2 incubator overnight. After mixing evenly, the OD values were measured by BIO-TEK ELx800 ELISA instrument (determination wavelength: 570 nm; reference wavelength: 630 nm).

C8166 cells = test: as above
Protocol: as §1, §2

HIV-1IIIB = test: Syncytium inhibition experiment, C8166 cells infected with HIV-1IIIB; details: Human immunodeficiency virus 1, 72 h; HIV-1IIIB (MOI=0.04) in C8166 cells, syncytium count, three days
Protocol: as §1
Syncytium inhibition experiment: 100 μL of C8166 cell suspension (4×10^5/mL) was seeded into each well of 96-well cell culture plates containing 5-fold serial dilutions of the compounds, followed by addition of HIV-1IIIB diluted supernatant (MOI=0.04). Triplicate wells were set for each serial concentration. […] The cells were cultured at 37° C. in a 5% CO2 incubator for three days. The number of the syncytia was counted in five non-overlapping fields of view by using an inverted microscope (100×).

[2] = C8166 cells, MTT, three days, read-out: CC50

SMILES	CC50 at 3 days [1] [µM]	CC50 (C8166 cells; human, 3 days) [µM]	EC50 (HIV-1IIIB) [µM]	CC50 at 3 days [1, 2] [µM]	CC50 at 3 days ([1]; C8166 cells in vitro, read-out: CC50 values on C8166 cells) [µM]	CC50 (C8166 cells; [2]) [µM]
COc1ccc(-c2cc(CSc3nc(CC4CCCCC4)c(C(C)C)c(=O)[nH]3)n[nH]2)cc1 [Compound I-40]	> 200	> 200	0.012			
CCc1c(Cc2cc(F)cc(F)c2)nc(SCc2cc(-c3ccc(F)cc3)[nH]n2)[nH]c1=O [Compound I-52]	> 200	> 200	0.097			
CCc1c(Cc2ccccc2)nc(SCc2cc(-c3ccc(F)cc3)[nH]n2)[nH]c1=O [Compound I-49]	> 200	> 200	0.837			
O=c1cc(CC2CCCCC2)nc(SCc2cc(-c3ccc(F)c(F)c3)[nH]n2)[nH]1 [Compound I-59]	89.1		23.9			
CCc1c(Cc2ccccc2)nc(SCc2n[nH]c(-c3ccc(F)c(F)c3)c2Cl)[nH]c1=O [Compound I-53]	> 200	> 200	0.141			
O=c1cc(CC2CCCCC2)nc(SCc2n[nH]c(-c3ccc(F)cc3)c2Cl)[nH]1 [Compound I-67]	> 200		0.847			
CCc1c(Cc2c(Cl)cccc2Cl)nc(SCc2n[nH]c(-c3ccc(F)cc3)c2Cl)[nH]c1=O [Compound I-64]	> 200		0.643			
CCc1c(CC2CCCCC2)nc(SCc2cc(-c3cccc(C)c3)[nH]n2)[nH]c1=O [Compound I-23]			0.052	91.4		
CC(C)c1c(CC2CCCCC2)nc(SCc2cc(-c3ccc(F)cc3)[nH]n2)[nH]c1=O [Compound I-39]	99		0.016			
CCc1c(Cc2ccccc2)nc(SCc2cc(-c3ccc(F)c(F)c3)[nH]n2)[nH]c1=O [Compound I-58]	81		0.4			
CCc1c(Cc2cc(F)cc(F)c2)nc(SCc2n[nH]c(-c3ccccc3)c2Cl)[nH]c1=O [Compound I-69]	> 200		0.055			
CC(C)c1c(CC2CCCCC2)nc(SCc2cc(-c3ccc(O)cc3)[nH]n2)[nH]c1=O [Compound I-38]	156		0.003			
CCc1c(Cc2ccc3c(c2)OCO3)nc(SCc2cc(-c3ccc(F)cc3)[nH]n2)[nH]c1=O [Compound I-50]	78		2.97			
CCc1c(Cc2ccc3c(c2)OCO3)nc(SCc2n[nH]c(-c3ccc(F)cc3)c2Cl)[nH]c1=O [Compound I-65]	> 200		0.37			
O=c1cc(CC2CCCCC2)nc(SCc2n[nH]c(-c3ccc(F)c(F)c3)c2Cl)[nH]1 [Compound I-54]	89		3.88			
Cc1c(CC2CCCCC2)nc(SCc2n[nH]c(-c3ccc(F)cc3)c2Cl)[nH]c1=O [Compound I-68]	> 200		0.111			
CCc1c(Cc2c(Cl)cccc2Cl)nc(SCc2cc(-c3ccc(F)c(F)c3)[nH]n2)[nH]c1=O [Compound I-60]	64.9		0.733			
CCc1c(Cc2cc(F)cc(F)c2)nc(SCc2n[nH]c(-c3ccc(F)c(F)c3)c2Cl)[nH]c1=O [Compound I-57]	81.1		0.08			
O=c1cc(CC2CCCCC2)nc(SCc2n[nH]c(-c3ccccc3)c2Cl)[nH]1 [Compound I-48]	98.9		0.927			
CCc1c(CC2CCCCC2)nc(SCc2n[nH]c(-c3ccc(Cl)c(Cl)c3)c2Cl)[nH]c1=O [Compound I-13]			0.349		> 200	> 200
CCc1c(Cc2c(Cl)cccc2Cl)nc(SCc2n[nH]c(-c3ccc(F)c(F)c3)c2Cl)[nH]c1=O [Compound I-55]	> 200	> 200	0.7			

From patent publication US11447470B2, “Pyrimidinone-containing compound, preparation method thereof, pharmaceutical composition and application thereof” (YUNNAN UNIVERSITY, priority 2018, dated 2022)
